This passage reports Ki results from ChEMBL document CHEMBL2439959, “Structural study of the location of the phenyl tail of benzene sulfonamides and the effect on human carbonic anhydrase inhibition” (Bioorg Med Chem, 2013).

Molecules are shown by their SMILES.

The target of assay [1] is Carbonic anhydrase 5A, mitochondrial (Homo sapiens, UniProt P35218).
The target in assay [2] is Carbonic anhydrase 5B, mitochondrial (Homo sapiens, UniProt Q9Y2D0).

For orientation: Ki means the equilibrium dissociation constant of an inhibitor or competing ligand from its target. Read a low Ki as a stronger hold on the target.

Sequence of Carbonic anhydrase 5A, mitochondrial (P35218 whole entry): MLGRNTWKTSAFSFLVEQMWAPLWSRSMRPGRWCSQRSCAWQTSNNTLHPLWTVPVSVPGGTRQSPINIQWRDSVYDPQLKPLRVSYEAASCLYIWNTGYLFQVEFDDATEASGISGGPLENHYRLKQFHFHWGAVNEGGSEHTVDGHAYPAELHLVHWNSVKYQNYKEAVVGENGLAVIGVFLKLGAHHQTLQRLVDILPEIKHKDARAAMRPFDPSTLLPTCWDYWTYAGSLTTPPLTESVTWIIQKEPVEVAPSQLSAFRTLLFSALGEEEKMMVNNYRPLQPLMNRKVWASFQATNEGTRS
Sequence of Carbonic anhydrase 5B, mitochondrial (Q9Y2D0 whole entry): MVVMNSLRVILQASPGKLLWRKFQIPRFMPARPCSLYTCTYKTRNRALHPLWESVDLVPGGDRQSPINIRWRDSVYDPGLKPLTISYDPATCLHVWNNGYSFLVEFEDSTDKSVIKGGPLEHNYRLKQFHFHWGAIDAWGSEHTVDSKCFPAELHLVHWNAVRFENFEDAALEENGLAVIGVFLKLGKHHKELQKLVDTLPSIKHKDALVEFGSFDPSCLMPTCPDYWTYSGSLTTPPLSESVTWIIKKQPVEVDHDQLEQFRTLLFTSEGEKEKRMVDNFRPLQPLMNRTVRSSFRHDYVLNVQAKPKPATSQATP

For `NS(=O)(=O)c1ccc(Nc2nc(Cl)nc(NCCO)n2)cc1`, the Ki in assay [1] was 0.451 µM; in assay [2], 0.34 µM.
`NS(=O)(=O)c1ccc(NC(=O)Cc2ccccc2)cc1`: the inhibition constant (Ki) is 0.013 µM in assay [1] and 0.01 µM in assay [2].
